As a reminder, the IC50 is the concentration needed to halve the response being measured.

For 22 compounds, IC50 results are on record in patent US20140206681A1, “BTK INHIBITORS” (priority 2013, published 2014).

Assay [1] concerns the target T1, BTK enzyme (recombinant full-length BTK, hBTK) (Homo sapiens, UniProt Q06187).
T1 construct: recombinant protein from baculovirus-transfected Sf9 cells: full-length BTK, 6HIS-tag cleaved; 6HIS (cleaved yes); made in house; host or cells: baculovirus-transfected Sf9 cells
In words: BTK enzyme activity assay, LANCE TR-FRET. Type of assay: biochemical. To be noted: 50 pM hBTK, 2 μM biotin-A5-peptide, 25 μM ATP; 60 min compound & enzyme incubation; read-out: IC50 BTK activity value.

For assay [2], the system named is HeLa cells. The assay can be described thus: [3H]Adenosine uptake functional cellular assay. It is filed as cell-based. The conditions noted are these: Homo sapiens, HeLa, accumulation of [3H]adenosine into HeLa cells; compound range 10 μM to […]; read-out: Adenosine uptake inhibition IC50. The method, boiled down:
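Inhibition of adenosine uptake was measured in HeLa cells (ATCC CCL-2) by following accumulation of tritiated adenosine. Cells were kept overnight at 37° C. with 5% (v/v) CO2, then switched to 40 μL HBSS plus 5% (v/v) FBS. 20 μL of 500 nM [3H]adenosine was added, and uptake was counted on a Topcount NXT reader.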

T1 sequence (Q06187 whole entry): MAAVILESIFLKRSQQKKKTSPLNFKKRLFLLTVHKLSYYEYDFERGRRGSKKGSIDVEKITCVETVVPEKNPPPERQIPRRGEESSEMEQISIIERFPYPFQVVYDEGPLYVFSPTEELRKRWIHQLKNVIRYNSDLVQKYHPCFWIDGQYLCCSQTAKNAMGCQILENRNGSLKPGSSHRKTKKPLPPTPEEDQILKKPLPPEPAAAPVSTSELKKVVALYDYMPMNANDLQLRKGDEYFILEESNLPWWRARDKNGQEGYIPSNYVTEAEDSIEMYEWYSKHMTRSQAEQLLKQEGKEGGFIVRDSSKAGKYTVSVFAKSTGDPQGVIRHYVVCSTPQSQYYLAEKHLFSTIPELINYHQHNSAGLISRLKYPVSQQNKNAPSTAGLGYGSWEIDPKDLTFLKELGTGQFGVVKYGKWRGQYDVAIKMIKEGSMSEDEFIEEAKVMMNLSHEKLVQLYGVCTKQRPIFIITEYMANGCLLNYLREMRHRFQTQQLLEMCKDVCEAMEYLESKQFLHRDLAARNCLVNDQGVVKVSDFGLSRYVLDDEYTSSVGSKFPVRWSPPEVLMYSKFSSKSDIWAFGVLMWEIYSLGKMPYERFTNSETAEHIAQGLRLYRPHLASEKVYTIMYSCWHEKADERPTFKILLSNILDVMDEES

As for `Cc1nnc(NC(=O)c2ccc(-c3nc([C@@H]4CC[C@H]5CCC(=O)N5C4)n4ccnc(N)c34)cc2)s1` [Example 182, 4-{8-amino-3-[(6R,8aS)-3-oxooctahydroindolizin-6-yl]imidazo[1,5-a]pyrazin-1-yl}-N-(5-methyl-1,3,4-thiadiazol-2-yl)benzamide], the IC50 in assay [1] worked out at 0.272 µM; in assay [2], 3.61 µM.

In the case of `Cn1nc(NC(=O)c2ccc(-c3nc([C@@H]4CC[C@H]5CCC(=O)N5C4)n4c(Cl)cnc(N)c34)cc2)cc1C(F)(F)F` [Example 183, 4-(8-amino-5-chloro-3-((6R,8aS)-3-oxooctahydroindolizin-6-yl)imidazo[1,5-a]pyrazin-1-yl)-N-(1-methyl-5-(trifluoromethyl)-1H-pyrazol-3-yl)benzamide], the values for the IC50 in assay [1] and in assay [2] were 0.00064 µM and 0.47 µM, respectively.

In the case of `CCn1nc(NC(=O)c2ccc(-c3nc([C@@H]4CC[C@H]5CCC(=O)N5C4)n4ccnc(N)c34)cc2)cc1C(F)(F)F` [Example 185, 4-{8-amino-3-[(6R,8aS)-3-oxooctahydroindolizin-6-yl]imidazo[1,5-a]pyrazin-1-yl}-N-[1-ethyl-5-(trifluoromethyl)-1H-pyrazol-3-yl]benzamide], the IC50 in assay [1] came to 0.237 µM; in assay [2] it was 5.39 µM.

Turning to `Cc1cc(C(=O)Nc2cc(C(F)(F)F)ccn2)ccc1-c1nc([C@@H]2CC[C@H]3CCC(=O)N3C2)n2ccnc(N)c12` [Example 187, 4-{8-amino-3-[(6R,8aS)-3-oxooctahydroindolizin-6-yl]imidazo[1,5-a]pyrazin-1-yl}-3-methyl-N-[4-(trifluoromethyl)pyridin-2-yl]benzamide], the 50% inhibitory concentration (IC50) in assay [1] turned out to be 0.00046 µM; in assay [2] it was 0.31 µM.

Turning to `COc1cc(C(=O)Nc2cc(C(F)(F)F)n(C)n2)ccc1-c1nc([C@@H]2CC[C@H]3CCC(=O)N3C2)n2ccnc(N)c12` [Example 188, 4-{8-amino-3-[(6R,8aS)-3-oxooctahydroindolizin-6-yl]imidazo[1,5-a]pyrazin-1-yl}-3-methoxy-N-[1-methyl-5-(trifluoromethyl)-1H-pyrazol-3-yl]benzamide], the concentration for half-maximal inhibition (IC50) in assay [1] worked out at 0.0027 µM; in assay [2], 3.69 µM.

Consider `COc1cc(C(=O)Nc2cc(C(F)(F)F)n(C)n2)ccc1-c1nc([C@@H]2CC[C@H]3CCC(=O)N3C2)n2c(Cl)cnc(N)c12` [Example 189, 4-{8-amino-5-chloro-3-[(6R,8aS)-3-oxooctahydroindolizin-6-yl]imidazo[1,5-a]pyrazin-1-yl}-3-methoxy-N-[1-methyl-5-(trifluoromethyl)-1H-pyrazol-3-yl]benzamide], for which the half-inhibitory concentration (IC50) in assay [1] was found to be 0.0015 µM; in assay [2], 1.55 µM.

Consider `Cn1nc(NC(=O)c2ccc(-c3nc([C@@H]4CC[C@H]5CCC(=O)N5C4)n4ccnc(N)c34)c(Cl)c2)cc1C(F)(F)F` [Example 190, 4-{8-amino-3-[(6R,8aS)-3-oxooctahydroindolizin-6-yl]imidazo[1,5-a]pyrazin-1-yl}-3-chloro-N-[1-methyl-5-(trifluoromethyl)-1H-pyrazol-3-yl]benzamide], for which the IC50 in assay [1] is 0.0022 µM; in assay [2] it was 0.31 µM.

Consider `Cn1nc(NC(=O)c2ccc(-c3nc([C@@H]4CC[C@H]5CCC(=O)N5C4)n4c(Cl)cnc(N)c34)c(Cl)c2)cc1C(F)(F)F` [Example 191, 4-{8-amino-5-chloro-3-[(6R,8aS)-3-oxooctahydroindolizin-6-yl]imidazo[1,5-a]pyrazin-1-yl}-3-chloro-N-[1-methyl-5-(trifluoromethyl)-1H-pyrazol-3-yl]benzamide], for which the values for the IC50 in assay [1] and in assay [2] were 0.0019 µM and 0.995 µM, respectively.

In the case of `Cn1nc(NC(=O)c2cc(Cl)c(-c3nc([C@@H]4CC[C@H]5CCC(=O)N5C4)n4c(Cl)cnc(N)c34)cc2F)cc1C(F)(F)F` [Example 192, 4-{8-amino-5-chloro-3-[(6R,8aS)-3-oxooctahydroindolizin-6-yl]imidazo[1,5-a]pyrazin-1-yl}-5-chloro-2-fluoro-N-[1-methyl-5-(trifluoromethyl)-1H-pyrazol-3-yl]benzamide], the figures for the IC50 in assay [1] and in assay [2] were 0.0246 µM and 0.408 µM, respectively.

Turning to `Nc1nccn2c([C@@H]3CC[C@H]4CCC(=O)N4C3)nc(-c3cc(F)c(C(=O)Nc4cc(C(F)(F)F)ccn4)cc3Cl)c12` [Example 193, 4-{8-amino-3-[(6R,8aS)-3-oxooctahydroindolizin-6-yl]imidazo[1,5-a]pyrazin-1-yl}-5-chloro-2-fluoro-N-[4-(trifluoromethyl)pyridin-2-yl]benzamide], the IC50 in assay [1] is 0.0046 µM; in assay [2], 0.213 µM.

`Nc1ncc(Cl)n2c([C@@H]3CC[C@H]4CCC(=O)N4C3)nc(-c3ccc(C(=O)Nc4cc(C(F)(F)F)ccn4)cc3Cl)c12` [Example 194, 4-{8-amino-5-chloro-3-[(6R,8aS)-3-oxooctahydroindolizin-6-yl]imidazo[1,5-a]pyrazin-1-yl}-3-chloro-N-[4-(trifluoromethyl)pyridin-2-yl]benzamide]: the IC50 in assay [1] was 0.00039 µM; in assay [2], 0.226 µM.

Consider `Cc1cnc(NC(=O)c2ccc(-c3nc([C@@H]4CC[C@H]5CCC(=O)N5C4)n4ccnc(N)c34)c(Cl)c2)s1` [Example 195, 4-(8-amino-3-((6R,8aS)-3-oxooctahydroindolizin-6-yl)imidazo[1,5-a]pyrazin-1-yl)-3-chloro-N-(5-methylthiazol-2-yl)benzamide], for which the IC50 in assay [1] stood at 0.00063 µM; in assay [2], 0.175 µM.

Consider `Cc1cnc(NC(=O)c2ccc(-c3nc([C@@H]4CC[C@H]5CCC(=O)N5C4)n4c(Cl)cnc(N)c34)c(Cl)c2)s1` [Example 196, 4-(8-amino-5-chloro-3-((6R,8aS)-3-oxooctahydroindolizin-6-yl)imidazo[1,5-a]pyrazin-1-yl)-3-chloro-N-(5-methylthiazol-2-yl)benzamide], for which the IC50 in assay [1] came out at 0.0015 µM; in assay [2] it was 0.741 µM.

In the case of `Cc1cc(C(=O)Nc2cc(C(F)(F)F)ccn2)c(F)cc1-c1nc([C@@H]2CC[C@H]3CCC(=O)N3C2)n2c(Cl)cnc(N)c12` [Example 197, 4-(8-amino-5-chloro-3-((6R,8aS)-3-oxooctahydroindolizin-6-yl)imidazo[1,5-a]pyrazin-1-yl)-2-fluoro-5-methyl-N-(4-(trifluoromethyl)pyridin-2-yl)benzamide], the IC50 was found to be 0.0078 µM in assay [1] and 0.199 µM in assay [2].

On to `Cc1cc(C(=O)Nc2cc(C(F)(F)F)ccn2)c(F)cc1-c1nc([C@@H]2CC[C@H]3CCC(=O)N3C2)n2ccnc(N)c12` [Example 198, 4-(8-amino-3-((6R,8aS)-3-oxooctahydroindolizin-6-yl)imidazo[1,5-a]pyrazin-1-yl)-2-fluoro-5-methyl-N-(4-(trifluoromethyl)pyridin-2-yl)benzamide], for which the IC50 stood at 0.0082 µM in assay [1] and 0.252 µM in assay [2].

With `CCOCCOc1cc(C(=O)Nc2cc(C(F)(F)F)ccn2)ccc1-c1nc([C@@H]2CC[C@H]3CCC(=O)N3C2)n2ccnc(N)c12` [Example 201, 4-{8-amino-3-[(6R,8aS)-3-oxooctahydroindolizin-6-yl]imidazo[1,5-a]pyrazin-1-yl}-3-(2-ethoxyethoxy)-N-[4-(trifluoromethyl)pyridin-2-yl]benzamide], the results for the IC50 in assay [1] and in assay [2] were 0.0032 µM and 5.89 µM, respectively.

In the case of `COc1cc(C(=O)Nc2ncc(C)s2)ccc1-c1nc([C@@H]2CC[C@H]3CCC(=O)N3C2)n2ccnc(N)c12` [Example 202, 4-{8-amino-3-[(6R,8aS)-3-oxooctahydroindolizin-6-yl]imidazo[1,5-a]pyrazin-1-yl}-3-methoxy-N-(5-methyl-1,3-thiazol-2-yl)benzamide], the IC50 came to 0.0052 µM in assay [1] and 6.88 µM in assay [2].

As to `COc1cc(C(=O)Nc2ncc(C)s2)ccc1-c1nc([C@@H]2CC[C@H]3CCC(=O)N3C2)n2c(Cl)cnc(N)c12` [Example 203, 4-{8-amino-5-chloro-3-[(6R,8aS)-3-oxooctahydroindolizin-6-yl]imidazo[1,5-a]pyrazin-1-yl}-3-methoxy-N-(5-methyl-1,3-thiazol-2-yl)benzamide], the IC50 amounted to 0.0017 µM in assay [1] and 1.73 µM in assay [2].

For the compound `C#CCCOc1cc(C(=O)Nc2cc(C(F)(F)F)ccn2)ccc1-c1nc([C@@H]2CC[C@H]3CCC(=O)N3C2)n2ccnc(N)c12` [Example 204, 4-{8-amino-3-[(6R,8aS)-3-oxooctahydroindolizin-6-yl]imidazo[1,5-a]pyrazin-1-yl}-3-(but-3-yn-1-yloxy)-N-[4-(trifluoromethyl)pyridin-2-yl]benzamide], the IC50 in assay [1] worked out at 0.00075 µM; in assay [2], 1.39 µM.

As for `CCOc1cc(C(=O)Nc2cc(C(F)(F)F)n(C)n2)ccc1-c1nc([C@@H]2CC[C@H]3CCC(=O)N3C2)n2c(C)cnc(N)c12` [Example 205, 4-{8-amino-5-methyl-3-[(6R,8aS)-3-oxooctahydroindolizin-6-yl]imidazo[1,5-a]pyrazin-1-yl}-3-ethoxy-N-[1-methyl-5-(trifluoromethyl)-1H-pyrazol-3-yl]benzamide], the half-maximal inhibitory concentration (IC50) in assay [1] was determined as 0.0012 µM; in assay [2] it was 2.36 µM.

Regarding `CCOc1cc(C(=O)Nc2cc(C(F)(F)F)ccn2)ccc1-c1nc([C@@H]2CC[C@H]3CCC(=O)N3C2)n2c(C(F)(F)F)cnc(N)c12` [Example 206, 4-{8-amino-3-[(6R,8aS)-3-oxooctahydroindolizin-6-yl]-5-(trifluoromethyl)imidazo [1,5-a]pyrazin-1-yl}-3-ethoxy-N-[4-(trifluoromethyl)pyridin-2-yl]benzamide], the IC50 in assay [1] came out at 0.00072 µM; in assay [2], 1.11 µM.

With `CCc1ccnc(NC(=O)c2ccc(-c3nc([C@@H]4CC[C@H]5CCC(=O)N5C4)n4c(Cl)cnc(N)c34)c(OC)c2)c1` [Example 207, 4-{8-amino-5-chloro-3-[(6R,8aS)-3-oxooctahydroindolizin-6-yl]imidazo[1,5-a]pyrazin-1-yl}-N-(4-ethylpyridin-2-yl)-3-methoxybenzamide], the IC50 in assay [1] was found to be 0.00058 µM; in assay [2], 0.377 µM.
